Reference: patent publication US12065438B2, “Substituted tricyclic compounds as indoleamine 2,3-dioxygenase inhibitors” (Merck Sharp & Dohme LLC, priority 2019, dated 2024)

Columns and labels:
IDO1 [1] = target: T1, IDO1 (Homo sapiens, UniProt P14902); assay: IDO1 Cellular Assay in HeLa Cells Stimulated with IFNγ; format: cell-based; set-up: endogenous in cells; host or cells: HeLa cells stimulated with IFNγ; settings: HeLa cells stimulated with IFNγ 100 ng/mL, 300 uM L-tryptophan, about 48 hours, fluorescence readout; read-out: IDO1 HELA Cell Assay, IC50
T1 sequence (P14902 whole entry): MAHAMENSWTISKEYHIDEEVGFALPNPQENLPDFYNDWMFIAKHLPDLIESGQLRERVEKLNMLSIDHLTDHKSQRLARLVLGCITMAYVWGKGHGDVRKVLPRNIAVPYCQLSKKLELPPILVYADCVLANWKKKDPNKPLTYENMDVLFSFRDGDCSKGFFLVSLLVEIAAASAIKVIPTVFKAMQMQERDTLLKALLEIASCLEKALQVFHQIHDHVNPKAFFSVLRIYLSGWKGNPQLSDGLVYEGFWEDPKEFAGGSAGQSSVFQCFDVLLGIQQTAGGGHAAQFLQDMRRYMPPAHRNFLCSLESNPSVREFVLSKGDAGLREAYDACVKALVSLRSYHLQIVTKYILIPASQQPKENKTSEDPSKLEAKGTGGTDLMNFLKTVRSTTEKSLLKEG
Procedure: Biological Assays IDO1 Cellular Assay in HeLa Cells Stimulated with IFNγ HeLa cells were cultured in complete HeLa culture medium (90% EMEM, 10% heat-inactivated fetal bovine serum) and expanded to about 1×10^9 cells. The cells were then collected and frozen down at 1×10^7 cells/vial in 1 mL frozen medium (90% complete HeLa culture medium, 10% DMSO). Compounds to be tested were serially diluted in ten 3-fold steps in DMSO starting from 10 mM DMSO stocks in Echo low volume plate(s). Compound dilutions or DMSO alone were then dispensed from the dilution plate(s) into Greiner black 384-well assay plate(s) (catalog #781086, 50 nL/well) using an Echo 550 acoustic liquid handler (Labcyte). Frozen HeLa cells were thawed and transferred into HeLa assay medium (99% complete HeLa culture medium, 1% Pen/Strep) with 20 mL medium/vial of cells. The cells were spun down at 250 g in a table top centrifuge for 5 min and suspended in same volume of HeLa assay medium. The cells were then counted and adjusted to a density of 2×10^5 cells/mL in HeLa assay medium. Sterile L-tryptophan were added to the cells with final concentration of 300 uM L-tryptophan. A small aliquot (2 mL/plate) of HeLa cells were set aside and were not treated with IFNγ, to serve as the Max-E control. The rest of HeLa cells were added with sterile IFNγ (Cat #285-IF, R & D systems) with a final concentration of 100 ng/mL. HeLa cells with and without IFNγ were dispensed to the respective wells of 384-well assay plates containing the compounds. The plates were incubated for about 48 hours at a 37° C., 5% CO2 incubator. Afterwards, 12 μL of 0.5 M methyl isonipecotate in dimethyl sulfoxide were added into each well and the plates were sealed and incubated at 37° C. without CO2 overnight. The plates were centrifuged for 1 min at 200×g. The resulting fluorescence was measured in a Spectramax plate reader (Molecular Devices) with a 400 nm excitation filter and a 510 nm emission filter. The fluorescence intensity of each well was corrected for the background observed in wells with non-IFNγ-treated cells and was expressed as a fraction of the intensity observed in wells of IFNγ-treated cells and DMSO only. Potencies were calculated by […] least squares fit to the four parameter logistic IC50 equation.

IDO1 [2] = target: T1, IDO1; assay: IDO1 Human Whole Blood Assay; format: cell-based; settings: LPS and IFNγ 100 ng/mL, overnight (18 h), kynurenine by LC/MS/MS
Procedure: IDO1 Human Whole Blood Assay
Compounds to be tested were serially diluted in ten 3-fold steps in DMSO starting from 10 mM. 3 μL of compound dilutions or DMSO alone were then dispensed from the dilution plate into a polypropylene 96-well assay plate containing 97 μL of RPMI medium using an Echo 555 acoustic liquid handler (Labcyte). LPS and IFNγ was prepared in RPMI medium to a 10× of final conc. (1000 ng/mL), final concentration is 100 ng/mL.
240 μL of blood was transferred to each of the wells of a v-bottom 96 well plate. 30 μL of compound was transferred from intermediate dilution plate, and incubated for 15 min. 30 μL from stimulants was then transferred to blood and mixed thoroughly. Plate was covered with breathable membrane and incubated at 37° C. for overnight (18 h).
On day 2, isotope labeled standard solutions of kynurenine and tryptophan was made in water at 10× concentration and 30 μL was added to the blood at 3 μM final concentration. The assay plates were centrifuged at 300×G for 10 min with no brake to separate plasma from red blood cells. 60 μL of plasma samples was removed without disturbing red blood cells. Plasma was diluted with RPMI in 1:1 ratio and proteins were precipitated out with two volumes of Acetonitrile. The plates were centrifuged at 4000×G for 60 min. 20 μL of supernatant was carefully transferred to a 384 well plate containing 40 μL of 0.1% formic acid in water and analyzed by LC/MS/MS.
LC/MS/MS analyses were performed using Thermo Fisher's LX4-TSQ Quantum Ultra system. This system consists of four Agilent binary high-performance liquid chromatography (HPLC) pumps and a TSQ Quantum Ultra triple quadrupole MS/MS instrument. For each sample, 5 μL were injected onto an Atlantis T3 column (2.1 mm×150 mm, 3 μm particle size) from Waters. The mobile phase gradient pumped at 0.8 mL/min was used to elute the analytes from the column at 25° C. The elution started at 0% B increasing linearly to 25% B at 6.5 min, holding at 25% for 1 min, re-equilibrating to 10 min. Mobile phase A consisted of 0.1% formic acid in water. Mobile phase B consisted of 0.1% of formic acid in acetonitrile. Data were acquired in positive mode using a HESI interface. The operational parameters for the TSQ Quantum Ultra instrument were a spray voltage of 4000 V, capillary temperature of 380° C., vaporizer temperature 400° C., shealth gas 60 arbitrary units, Aux gas 20 arbitrary units, tube lens 85 and collision gas 1.2 mTorr. SRM chromatograms of kynurenine (Q1: 209.2>Q3:94.0) and internal standard (Q1: 215.3>Q3:98.2) were collected for 90 sec. The peak area was integrated by Xcalibur Quan software. The ratios between the kynurenine generated in the reaction and 2D6-Kynurenine spiked-in internal standard were used to generate percentage inhibition and IC50 values. Compounds were titrated and IC50's were calculated by 4 parameter sigmoidal curve fitting formula.

Compound	IC50 (IDO1 [1]) [nM]	IC50 (IDO1 [2]) [nM]
CC(C)(O)c1nccc(N2CC3CC3c3nc(C4(NC(=O)c5ccc(F)cc5)CC4)ccc32)n1 (stereo not shown) [Example 18, 4-fluoro-N-(1-(5-(2-(2-hydroxypropan-2-yl)pyrimidin-4-yl)-6,6a,7,7a-tetrahydro-5H-cyclopropa[c][1,5]naphthyridin-2-yl)cyclopropyl)benzamide]	12	248
CC(C)(NC(=O)c1ccc(F)cc1)c1ccc2c(n1)C1CC1CN2C(=O)C(F)(F)F (stereo not shown) [Example 35, 2-(2-(4-fluorobenzamido)propan-2-yl)-5-(2,2,2-trifluoroacetyl)-6,6a,7,7a-tetrahydro-5H-cyclopropa[c][1,5]naphthyridin-1-ium]	1300	778
CCC(NC(=O)c1ccc(F)cc1)c1ccc2c(n1)C1CC1CN2C(=O)OC1CC1 (single isomer, unassigned) [Example 37, cyclopropyl 2-(1-(4-fluorobenzamido)propyl)-6,6a,7,7a-tetrahydro-5H-cyclopropa[c][1,5]naphthyridine-5-carboxylate]	2.83	54
4-fluoro-N-(2-((6aS,7aR)-5-(2-methylpyrimidin-4-yl)-6,6a,7,7a-tetrahydro-5H-cyclopropa[c][1,5]naphthyridin-2-yl)propan-2-yl)benzamide [Example 30]	6.6	126
C[C@@H](NC(=O)c1ccc(F)cc1)c1ccc2c(n1)[C@@H]1C[C@@H]1CN2C(=O)OC1CC1 [Example 27, cyclopropyl (6aS,7aR)-2-((R)-1-(4-fluorobenzamido)-ethyl)-6,6a,7,7a-tetrahydro-5H-cyclopropa[c][1,5]-naphthyridine-5-carboxylate]	3.23	463
CC(C)(C)OC(=O)N1CC2CC2c2nc(C3(NC(=O)c4ccc(F)cc4)CC3)ccc21 (stereo not shown) [Example 10, tert-butyl 2-(1-(4-fluorobenzamido)cyclopropyl)-6,6a,7,7a-tetrahydro-5H-cyclopropa[c][1,5]naphthyridine-5-carboxylate]	96.7	–
Cc1nccc(N2C[C@@H]3C[C@@H]3c3nc([C@@]4(NC(=O)c5ccc(F)cc5)C[C@H]4C)ccc32)n1 [Example 41, 4-fluoro-N-((1R,2R)-2-methyl-1-((6aR,7aS)-5-(2-methyl-pyrimidin-4-yl)-6,6a,7,7a-tetra-hydro-5H-cyclopropa[c][1,5]-naphthyridin-2-yl)cyclopropyl)-benzamide]	2.36	–
Cc1nccc(N2CC3CC3c3nc(C(C)(C)NC(=O)c4ccc(F)cc4)ccc32)n1 (racemic) [Example 29, 4-fluoro-N-(2-(5-(2-methylpyrimidin-4-yl)-6,6a,7,7a-tetrahydro-5H-cyclopropa[c][1,5]naphthyridin-2-yl)propan-2-yl)benzamide]	90	–
O=C(NC1(c2ccc3c(n2)[C@@H]2C[C@@H]2CN3C(=O)OC2CCOCC2)CC1)c1ccc(F)cc1 [Example 23, tetrahydro-2H-pyran-4-yl (6aS,7aR)-2-(1-(4-fluoro-benzamido)cyclopropyl)-6,6a,7,7a-tetrahydro-5H-cyclopropa[c][1,5]-naphthyridine-5-carboxylate]	17	–
Cc1nccc(N2c3ccc(C4(NC(=O)c5ccc(F)cc5)CC4)cc3CC3CCC32)n1 (stereo not shown) [Example 5, 4-fluoro-N-(1-(3-(2-methylpyrimidin-4-yl)-1,2,2a,3,8,8a-hexahydrocyclobuta[b]quinolin-6-yl)cyclopropyl)benzamide]	4.71	–
Cc1nccc(N2C[C@@H]3C[C@@H]3c3cc(C4(NC(=O)c5ccc(F)cc5)CC4)ccc32)n1 (single isomer, unassigned) [Example 2]	1.5	–
CCC(NC(=O)c1ccc(F)cc1)c1ccc2c(n1)C1CC1CN2c1ccnc(C)n1 (racemic) [Example 38, 4-fluoro-N-(1-(5-(2-methyl-pyrimidin-4-yl)-6,6a,7,7a-tetrahydro-5H-cyclopropa[c]-[1,5]naphthyridin-2-yl)propyl)-benzamide]	6.77	–
O=C(NC1(c2ccc3c(n2)C2CC2CN3)CC1)c1ccc(F)cc1 (stereo not shown) [Example 11, 4-fluoro-N-(1-(6,6a,7,7a-tetrahydro-5H-cyclopropa[c][1,5]naphthyridin-2-yl)cyclopropyl)benzamide]	2300	–

Further compounds by falling IC50 (IDO1 [1]), results first:

IC50 (IDO1 [1]) [nM]	IC50 (IDO1 [2]) [nM]	Compound
4900	–	CC(C)(NC(=O)c1ccc(F)cc1)c1ccc2c(n1)C1CC1CN2 (stereo not shown) [Example 54, 4-fluoro-N-(2-(6,6a,7,7a-tetra-hydro-5H-cyclopropa[c][1,5]-naphthyridin-2-yl)propan-2-yl)-benzamide]
44	–	O=C(C1CC1)N1CC2CC2c2cc(C3(C(=O)Nc4ccc(F)cc4)CCC3)ccc21 (single isomer, unassigned) [Example 3, 1-(3-(cyclopropanecarbonyl)-1a,2,3,7b-tetrahydro-1H-cyclopropa[c]quinolin-6-yl)-N-(4-fluorophenyl)cyclobutanecarboxamide]
11	151	O=C(NC1(c2ccc3c(n2)C2CC2CN3c2ccnc(CO)n2)CC1)c1ccc(F)cc1 (stereo not shown) [Example 19, 4-fluoro-N-(1-(5-(2-(hydroxymethyl)pyrimidin-4-yl)-6,6a,7,7a-tetrahydro-5H-cyclopropa[c][1,5]naphthyridin-2-yl)cyclopropyl)benzamide]
10.5	–	Cc1nccc(N2C[C@@H]3C[C@@H]3c3nc([C@]4(NC(=O)c5ccc(F)cc5)C[C@H]4C)ccc32)n1 [Example 39, 4-fluoro-N-((1S,2R)-2-methyl-1-((6aR,7aS)-5-(2-methyl-pyrimidin-4-yl)-6,6a,7,7a-tetra-hydro-5H-cyclopropa[c][1,5]-naphthyridin-2-yl)cyclopropyl)-benzamide]
4.34	–	Cc1nccc(N2C[C@H]3C[C@H]3c3nc([C@]4(NC(=O)c5ccc(F)cc5)C[C@H]4C)ccc32)n1 [Example 44, 4-fluoro-N-((1S,2R)-2-methyl-1-((6aS,7aR)-5-(2-methyl-pyrimidin-4-yl)-6,6a,7,7a-tetra-hydro-5H-cyclopropa[c][1,5]-naphthyridin-2-yl)cyclopropyl)-benzamide]
2.83	–	Cc1nccc(N2C[C@@H]3C[C@@H]3c3nc([C@@]4(NC(=O)c5ccc(F)cc5)C[C@@H]4C)ccc32)n1 [Example 40, 4-fluoro-N-((1R,2S)-2-methyl-1-((6aR,7aS)-5-(2-methyl-pyrimidin-4-yl)-6,6a,7,7a-tetra-hydro-5H-cyclopropa[c][1,5]-naphthyridin-2-yl)cyclopropyl)-benzamide]
